Patent US11866408B2, “N,N-dimethyltryptamine and related psychedelics and uses thereof” (Terran Biosciences Inc., priority 2021, dated 2024)

Key:
[1] = Single intravenous dose pharmacokinetics study in rats (1 mg/kg IV; plasma levels of prodrug and of DMT or 5-MeO-DMT by LC-MS/MS); settings: for AUC(0-t) / AUC(0-inf) / clearance / MRT / Vd / half-life: male, Sprague-Dawley, rat, iv, 1 mg/kg; for clearance: CL/CL_F (mL/min/kg); for MRT: MRT (h); for Vd: Vdss (L/kg); for half-life: t1/2 (h)
[2] = Single oral dose pharmacokinetics study in rats (10 mg/kg PO; plasma levels of prodrug and of metabolite DMT or 5-MeO-DMT by LC-MS/MS); settings: for AUC(0-t) / Cmax: male, Sprague-Dawley, rat, po, 10 mg/kg
[3] = IV 1 mg/kg Plasma (t= 0 to Ihr)
[4] = IV 1 mg/kg, plasma, analyte = dosed compound
[5] = plasma, AUC0-t (nM.hr), IV 1 mg/kg, analyte = dosed compound
[6] = plasma, AUC0-t (ng.hr/mL), IV 1 mg/kg, analyte = dosed compound
[7] = plasma, AUCinf (nM.hr), IV 1 mg/kg, analyte = dosed compound
[8] = plasma, AUCinf (ng.hr/mL), IV 1 mg/kg, analyte = dosed compound
[9] = plasma, IV 1 mg/kg Plasma (t= 0 to Ihr)
[10] = plasma, IV 1 mg/kg, analyte = dosed compound
[11] = PO 10 mg/kg Plasma (t= 0 to Ihr)
[12] = PO 10 mg/kg, plasma, analyte = dosed compound
[13] = plasma, AUC0-t (nM.hr), PO 10 mg/kg, analyte = dosed compound
[14] = plasma, AUC0-t (ng.hr/mL), PO 10 mg/kg, analyte = dosed compound
[15] = plasma, C0/Cmax (nM), PO 10 mg/kg, analyte = dosed compound
[16] = plasma, C0/Cmax (ng/mL), PO 10 mg/kg, analyte = dosed compound, mean/median

Row | Structure (SMILES) | AUC % Back Extrapolation to C0 [1, 4] | AUC % Extrapolation to infinity [1, 4] | Clast [1, 4] | tlast [1, 4] | AUC(0-t) [1, 5] | AUC(0-t) [1, 6] | AUC(0-inf) [1, 7] | AUC(0-inf) [1, 8] | clearance [1, 10] | MRT [1, 10] | Vd [1, 10] | half-life [1, 10] | AUC % Extrapolation to infinity [2, 12] | CL/CL_F [2, 12] | Clast [2, 12] | tlast [2, 12] | AUC(0-t) [2, 13] | AUC(0-t) [2, 14] | Cmax [2, 15] | Cmax [2, 16] | also measured
1 | CN(C)CCc1c[nH]c2ccccc12 [DMT, N,N-dimethyltryptamine] | 66.4% | 0.690% | 7.12 ng/mL | 1.50 h | 1.14 µM·h | 214 ng·h/mL | 1.15 µM·h | 216 ng·h/mL | 85.8 mL/min/kg | 9.12 min | 0.774 L/kg | 8.76 min | 42.6% | 1639 mL/min/kg | 1.52 ng/mL | 24.0 h | 0.314 µM·h | 59.1 ng·h/mL | 69.4 nM | 13.1 ng/mL | AUC % Back Extrapolation to C0 [1, 3]: 67.2%; AUC % Extrapolation to infinity [1, 3]: 0.502%; Clast [1, 3]: 5.51 ng/mL; tlast [1, 3]: 1.00 h; AUC(0-t) ([1]; plasma, AUC0-t (nM.hr), IV 1 mg/kg Plasma (t= 0 to Ihr)): 1.13 µM·h; AUC(0-t) ([1]; plasma, AUC0-t (ng.hr/mL), IV 1 mg/kg Plasma (t= 0 to Ihr)): 213 ng·h/mL; AUC(0-inf) ([1]; plasma, AUCinf (nM.hr), IV 1 mg/kg Plasma (t= 0 to Ihr)): 1.14 µM·h; AUC(0-inf) ([1]; plasma, AUCinf (ng.hr/mL), IV 1 mg/kg Plasma (t= 0 to Ihr)): 214 ng·h/mL; clearance [1, 9]: 87.1 mL/min/kg; MRT [1, 9]: 7.92 min; Vd [1, 9]: 0.645 L/kg; half-life [1, 9]: 8.4 min; Clast [2, 11]: 3.18 ng/mL; tlast [2, 11]: 1.02 h; Bioavailability (%) Using AUC0-t ([2]; PO 10 mg/kg Plasma (t= 0 to Ihr) vs IV 1 mg/kg): 0.212%; AUC(0-t) ([2]; plasma, AUC0-t (nM.hr), PO 10 mg/kg Plasma (t= 0 to Ihr)): 0.0239 µM·h; AUC(0-t) ([2]; plasma, AUC0-t (ng.hr/mL), PO 10 mg/kg Plasma (t= 0 to Ihr)): 4.51 ng·h/mL; Cmax ([2]; plasma, C0/Cmax (nM), PO 10 mg/kg Plasma (t= 0 to Ihr)): 47.1 nM; Cmax ([2]; plasma, C0/Cmax (ng/mL), PO 10 mg/kg Plasma (t= 0 to Ihr)): 8.87 ng/mL
2 | COc1ccc2c(c1)c(CCN(C)C)cn2P(=O)(OC(C)C)OC(C)C [Diisopropylphosphonate 5-MeO-DMT Prodrug, 2-(1-diisopropoxyphosphoryl-5-methoxy-indol-3-yl)-N,N-dimethyl-ethanamine] | 7.68% | 7.01% | 5.32 ng/mL | 4.00 h | 0.273 µM·h | 104 ng·h/mL | 0.295 µM·h | 113 ng·h/mL | 150 mL/min/kg | 83.4 min | 12.2 L/kg | 60.6 min | 7.77% | 450 mL/min/kg | 2.84 ng/mL | 24.1 h | 0.921 µM·h | 352 ng·h/mL | 210 nM | 80.4 ng/mL | Bioavailability (%) Using AUCinf ([2]; PO 10 mg/kg vs IV 1 mg/kg, plasma, analyte = dosed compound): 33.8%
3 | CC(C)OP(=O)(OC(C)C)n1cc(CCN(C)C)c2ccccc21 [Diisopropylphosphonate DMT Prodrug, 2-(1-diisopropoxyphosphorylindol-3-yl)-N,N-dimethyl-ethanamine] | 36.7% | 3.21% | 5.22 ng/mL | 4.00 h | 0.862 µM·h | 304 ng·h/mL | 0.881 µM·h | 311 ng·h/mL | 70.2 mL/min/kg | 52.1 min | 4.21 L/kg | 51.9 min | – | – | 28.2 ng/mL | 7.00 h | 1.83 µM·h | 644 ng·h/mL | 554 nM | 195 ng/mL | Bioavailability (%) Using AUC0-t ([2]; PO 10 mg/kg Plasma [Tlast = 4 h] vs IV 1 mg/kg): 16.1%; tlast ([2]; PO 10 mg/kg Plasma [Tlast = 4 h], analyte = dosed prodrug): 4.00 h; AUC(0-t) ([2]; plasma, AUC0-t (nM.hr), PO 10 mg/kg Plasma [Tlast = 4 h], analyte = dosed prodrug): 1.39 µM·h; AUC(0-t) ([2]; plasma, AUC0-t (ng.hr/mL), PO 10 mg/kg Plasma [Tlast = 4 h], analyte = dosed prodrug): 489 ng·h/mL; Cmax ([2]; plasma, C0/Cmax (nM), PO 10 mg/kg Plasma [Tlast = 4 h], analyte = dosed prodrug): 554 nM; Cmax ([2]; plasma, C0/Cmax (ng/mL), PO 10 mg/kg Plasma [Tlast = 4 h], analyte = dosed prodrug): 195 ng/mL
